Data as given in patent US10689346B2, “Human plasma kallikrein inhibitors” (BioCryst Pharmaceuticals, Inc., priority 2014, dated 2020).

What was measured:
[1] = biological target: human plasma kallikrein (Homo sapiens (Human), UniProt P03952); assay: Plasma Kallikrein Activity Assay; format: biochemical
Experimental: Plasma Kallikrein Activity Assay.
The effect of compounds of the invention on human plasma kallikrein activity was determined using the chromogenic substrates (DiaPharma Group, Inc., West Chester, Ohio, USA). In these experiments, 2 nM kallikrein (Enzyme Research Laboratories, South Bend, Ind., USA) was incubated with 80 μM S2302 (H-D-Pro-Phe-Arg-p-nitroaniline) in the absence or presence of increasing concentrations of compounds of the invention in a final volume of 200 μL Tris-HCl buffer (200 mM NaCl; 2.5 mM CaCl2; 50 mM Tris-HCl, pH 7.8).
Data were analyzed using SigmaPlot software (Systat Software, Inc., San Jose, Calif., USA) (Four Parameter Logistic Curve).

[2] = system: hereditary angioedema (HAE); details: cited from earlier work
[3] = system: sepsis; details: sepsis patients; cited from earlier work
[4] = system: middle cerebral artery occlusion (MCAO); details: mouse model of MCAO; cited from earlier work
[5] = system: LPS- or bacterial-induced sepsis; details: LPS- or bacterial-induced sepsis in animals; cited from earlier work
[6] = system: ischemic stroke; details: animal model of ischemic stroke; cited from earlier work

Chain of human plasma kallikrein (P03952 whole entry, looked up): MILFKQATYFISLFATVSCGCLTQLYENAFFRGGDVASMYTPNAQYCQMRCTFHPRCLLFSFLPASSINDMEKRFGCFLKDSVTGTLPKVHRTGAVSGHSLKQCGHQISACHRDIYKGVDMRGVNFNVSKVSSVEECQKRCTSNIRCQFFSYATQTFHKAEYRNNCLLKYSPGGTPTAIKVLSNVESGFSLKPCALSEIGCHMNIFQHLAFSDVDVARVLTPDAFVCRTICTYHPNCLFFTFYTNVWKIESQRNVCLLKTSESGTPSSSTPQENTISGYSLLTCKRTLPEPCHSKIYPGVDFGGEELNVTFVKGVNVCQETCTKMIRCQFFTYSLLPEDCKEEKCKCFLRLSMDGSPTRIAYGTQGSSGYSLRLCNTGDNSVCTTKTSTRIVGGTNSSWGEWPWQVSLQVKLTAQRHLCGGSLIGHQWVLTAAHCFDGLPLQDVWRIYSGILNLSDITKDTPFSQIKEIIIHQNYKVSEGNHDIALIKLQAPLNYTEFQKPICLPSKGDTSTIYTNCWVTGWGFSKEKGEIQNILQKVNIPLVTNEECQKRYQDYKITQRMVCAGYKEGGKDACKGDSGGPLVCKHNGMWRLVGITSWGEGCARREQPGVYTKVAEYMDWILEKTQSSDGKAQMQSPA
Chain of human plasma kallikrein (P03952 whole entry partner, looked up): as the sequence (P03952 whole entry, looked up) above

`CN(C1CC1)C(c1cccc(N)c1)c1cccc(NC(=O)c2cc(C(F)(F)F)nn2-c2cccc(CN)c2)c1` (centres unmarked) [Compound 102b, 1-(3-(aminomethyl)phenyl)-N-(3-((3-aminophenyl)(cyclopropyl-methylamino)methyl)phenyl)-3-(trifluoromethyl)-1H-pyrazole-5-carboxamide] showed a Ki [1] of 0.1 to 50 nM.

For `NC(N)=NCCC[C@@H](N)C(=O)N[C@@H](CCCN=C(N)N)C(=O)N1CCC[C@H]1C(=O)N1C[C@H](O)C[C@H]1C(=O)NCC(=O)N[C@@H](Cc1cccs1)C(=O)N[C@@H](CO)C(=O)N1Cc2ccccc2C[C@@H]1C(=O)N1[C@H](C(=O)N[C@@H](CCCN=C(N)N)C(=O)O)C[C@@H]2CCCC[C@@H]21` [Icatibant], the “efficacy in treating HAE” value ([2]; HAE) is listed as “effective in treating HAE”.

In the case of “C1-inhibitor: "a physiological inhibitor (C1-inhibitor)"; "reduced infarct size in a mouse model of middle cerebral artery occlusion" [Compound C1-inhibitor]”, the clinical improvement [3] is listed as “Clinical improvement was observed”, the infarct size [4] is listed as “reduced infarct size” and the lesions [5] is listed as “reduce lesions”. The “vascular permeability in multiple organs” value [5] was “reduce vascular permeability”.

In the case of ecallantide [DX-88], the brain edema [6] is listed as “reduced”, the infarct volume [6] is listed as “reduced” and the neurological deficits [6] is listed as “reduced”. The edema ([2]; patients with hereditary angioedema (HAE)) was “alleviates edema”.

In the case of “H-D-Pro-Phe-Arg-chloromethylketone [H-D-Pro-Phe-Arg-chloromethylketone (CMK)]”, the lesions [5] is given as “reduce lesions”.
